Measured values as given in patent US20120010075A1 (priority 2009, published 2012).
Read-outs that look alike come from different tables or passages of the source.

How the values were obtained:
[1] = test system: Leptosphaeria nodorum (LEPTNO); experiment: In vitro fungitoxicity of hydrazones with and without copper towards Leptosphaeria nodorum (Example 26); assay type: cell-based; settings: 72 h at 25° C.; for inhibition of growth at 0.05 µg/mL: Parastagonospora nodorum, 72 h, copper-minus medium, read-out: LEPTNO % Inhn. Minus Copper Observed
Phytophthora infestans = assay type: in vivo, Phytophthora infestans on tomato; settings: applied 24 h before inoculation, assessed 7 days after inoculation
[2] = test compound Concn. 0.05 μg/mL
[3] = copper-plus medium (CuCl2 10 μM), test compound Concn. 0.05 μg/mL
[4] = hydrazone 50 ppm with 50 μM CuCl2.2H2O, tomato late blight
[5] = compound 0.05 μg/mL, copper-plus medium (CuCl2.2H2O)
[6] = hydrazone 50 ppm + 50 μM CuCl2.2H2O, tomato

C/C(=N\NC(=O)c1ccc(Cl)cc1)c1cc(C(F)(F)F)ccc1O [Example 533]
inhibition of growth at 0.05 µg/mL [1, 2]: 6.2%
LEPTNO % Inhn. Plus Copper Observed [1, 3]: 97.0%
TLB % Control (Phytophthora infestans; [4]): 34.0%
melting point: 263 to 265 °C

Cc1cccc(O)c1/C=N/NC(=O)c1ccccc1 [Example 246]
inhibition of growth at 0.05 µg/mL ([1]; compound 0.05 μg/mL): 0%
LEPTNO % Inhn. Plus Copper Observed [1, 5]: 95.3%
TLB % Control (Phytophthora infestans; [6]): 50.9%
melting point: 212 to 213 °C

COc1ccc(C(=O)N/N=C(\C)c2cc(Cl)cc(Cl)c2O)c(O)c1 [Example 477]
inhibition of growth at 0.05 µg/mL [1, 2]: 6.2%
LEPTNO % Inhn. Plus Copper Observed [1, 3]: 83.4%
TLB % Control (Phytophthora infestans; [4]): 93.0%
melting point: 310 to 312 °C

C/C(=N\NC(=O)c1cccc(Cl)c1)c1cccc([N+](=O)[O-])c1O [Example 273]
inhibition of growth at 0.05 µg/mL ([1]; compound 0.05 μg/mL): 0.4%
LEPTNO % Inhn. Plus Copper Observed [1, 5]: 97.7%
TLB % Control (Phytophthora infestans; [6]): 44.0%
melting point: 251 to 286 °C

O=C(N/N=C/c1c(C(F)(F)F)ccc(Cl)c1O)c1cccc(F)c1 [Example 449]
inhibition of growth at 0.05 µg/mL [1, 2]: 7.2%
LEPTNO % Inhn. Plus Copper Observed [1, 3]: 98.5%
TLB % Control (Phytophthora infestans; [4]): 92.0%
melting point: 227 to 229 °C

C/C(=N\NC(=O)c1c(C)cccc1O)c1cc(Cl)cc(Cl)c1O [Example 479]
inhibition of growth at 0.05 µg/mL [1, 2]: 0%
LEPTNO % Inhn. Plus Copper Observed [1, 3]: 97.5%
TLB % Control (Phytophthora infestans; [4]): 97.0%
melting point: 245 °C

CC(C)(C)/C(=N\NC(=O)c1ccccc1)c1ccccc1O [Example 592]
inhibition of growth at 0.05 µg/mL [1, 2]: 0%
LEPTNO % Inhn. Plus Copper Observed [1, 3]: 25.4%
TLB % Control (Phytophthora infestans; [4]): 1.4%
melting point: 241 to 243 °C

Cc1ccc(C(=O)N/N=C/c2c(Cl)ccc(Cl)c2O)cc1 [Example 366]
inhibition of growth at 0.05 µg/mL [1, 2]: 14.2%
LEPTNO % Inhn. Plus Copper Observed [1, 3]: 96.6%
TLB % Control (Phytophthora infestans; [4]): 100.0%
melting point: 267 to 269 °C

O=C(N/N=C/c1cccc(C(F)(F)F)c1O)c1ccccc1C(F)(F)F [Example 353]
inhibition of growth at 0.05 µg/mL [1, 2]: 0%
LEPTNO % Inhn. Plus Copper Observed [1, 3]: 94.8%
TLB % Control (Phytophthora infestans; [4]): 81.0%
melting point: 169 to 171 °C

C/C(=N\NC(=O)c1ccccc1)c1cccc([N+](=O)[O-])c1O [Example 268]
inhibition of growth at 0.05 µg/mL ([1]; compound 0.05 μg/mL): 1.2%
LEPTNO % Inhn. Plus Copper Observed [1, 5]: 98.7%
TLB % Control (Phytophthora infestans; [6]): 31.0%
melting point: 215 to 224 °C

C/C(=N\NC(=O)c1cccc(Cl)c1)c1cc(Br)ccc1O [Example 292]
inhibition of growth at 0.05 µg/mL ([1]; compound 0.05 μg/mL): 5%
LEPTNO % Inhn. Plus Copper Observed [1, 5]: 97.6%
TLB % Control (Phytophthora infestans; [6]): 21.0%
melting point: 235 to 240 °C

C/C(=N\NC(=O)c1ccccc1Br)c1cc(Br)ccc1O [Example 519]
inhibition of growth at 0.05 µg/mL [1, 2]: 9.1%
LEPTNO % Inhn. Plus Copper Observed [1, 3]: 95.7%
TLB % Control (Phytophthora infestans; [4]): 88.0%
melting point: 216 to 218 °C

Cc1ccc(C(=O)N/N=C/c2cc(C(F)(F)F)cc(Cl)c2O)cc1 [Example 322]
inhibition of growth at 0.05 µg/mL [1, 2]: 20.9%
LEPTNO % Inhn. Plus Copper Observed [1, 3]: 97.9%
TLB % Control (Phytophthora infestans; [4]): 95.0%
melting point: 269 to 271 °C

C/C(=N\NC(=O)c1ccccc1O)c1cccc([N+](=O)[O-])c1O [Example 525]
inhibition of growth at 0.05 µg/mL [1, 2]: 5.4%
LEPTNO % Inhn. Plus Copper Observed [1, 3]: 97.4%
TLB % Control (Phytophthora infestans; [4]): 78.0%
melting point: 274 to 283 °C

O=C(N/N=C/c1ccc(Cl)c(Cl)c1O)c1cccc(F)c1 [Example 356]
inhibition of growth at 0.05 µg/mL [1, 2]: 18.6%
LEPTNO % Inhn. Plus Copper Observed [1, 3]: 98.0%
TLB % Control (Phytophthora infestans; [4]): 93.0%
melting point: 215 to 218 °C

COc1cc(O)c(/C(C)=N/NC(=O)c2ccc(C(F)(F)F)cc2)c(OC)c1 [Example 571]
inhibition of growth at 0.05 µg/mL [1, 2]: 0%
LEPTNO % Inhn. Plus Copper Observed [1, 3]: 84.7%
TLB % Control (Phytophthora infestans; [4]): 31.0%
melting point: 131 to 133 °C

C/C(=N\NC(=O)c1ccccc1O)c1cc(Br)cc(Br)c1O [Example 550]
inhibition of growth at 0.05 µg/mL [1, 2]: 4.6%
LEPTNO % Inhn. Plus Copper Observed [1, 3]: 97.2%
TLB % Control (Phytophthora infestans; [4]): 63.0%
melting point: 305 to 306 °C

C/C(=N\NC(=O)c1ccc(C)cc1)c1cc(Br)ccc1O [Example 290]
inhibition of growth at 0.05 µg/mL ([1]; compound 0.05 μg/mL): 0.4%
LEPTNO % Inhn. Plus Copper Observed [1, 5]: 95.5%
TLB % Control (Phytophthora infestans; [6]): 21.0%
melting point: 245 to 248 °C

O=C(N/N=C/c1cc(Cl)cc(Br)c1O)c1ccc(F)cc1 [Example 415]
inhibition of growth at 0.05 µg/mL [1, 2]: 2.9%
LEPTNO % Inhn. Plus Copper Observed [1, 3]: 96.1%
TLB % Control (Phytophthora infestans; [4]): 100.0%
melting point: 200 to 211 °C

COc1ccc(C(=O)N/N=C(\C)c2ccc(Cl)cc2O)cc1 [Example 459]
inhibition of growth at 0.05 µg/mL [1, 2]: 7.3%
LEPTNO % Inhn. Plus Copper Observed [1, 3]: 96.9%
TLB % Control (Phytophthora infestans; [4]): 20.0%
melting point: 262 to 263 °C

C/C(=N\NC(=O)c1cccc(Cl)c1)c1cc(Cl)ccc1O [Example 509]
inhibition of growth at 0.05 µg/mL [1, 2]: 0%
LEPTNO % Inhn. Plus Copper Observed [1, 3]: 96.2%
TLB % Control (Phytophthora infestans; [4]): 85.0%
melting point: 244 to 249 °C

O=C(N/N=C/c1ccc(Cl)cc1O)c1cccc([N+](=O)[O-])c1 [Example 393]
inhibition of growth at 0.05 µg/mL [1, 2]: 4.3%
LEPTNO % Inhn. Plus Copper Observed [1, 3]: 96.1%
TLB % Control (Phytophthora infestans; [4]): 73.0%
melting point: 233 to 238 °C

Cc1cccc(O)c1C(=O)N/N=C/c1cc(Cl)cc(Cl)c1O [Example 485]
inhibition of growth at 0.05 µg/mL [1, 2]: 8%
LEPTNO % Inhn. Plus Copper Observed [1, 3]: 96.7%
TLB % Control (Phytophthora infestans; [4]): 95.0%
melting point: 217 to 219 °C

C/C(=N\NC(=O)c1ccccc1C)c1cc(C)ccc1O [Example 312]
inhibition of growth at 0.05 µg/mL [1, 2]: 3.8%
LEPTNO % Inhn. Plus Copper Observed [1, 3]: 97.8%
TLB % Control (Phytophthora infestans; [4]): 1.4%
melting point: 154 to 156 °C

C/C(=N\NC(=O)c1ccccc1O)c1cc(Cl)cc(Cl)c1O [Example 471]
inhibition of growth at 0.05 µg/mL [1, 2]: 7.9%
LEPTNO % Inhn. Plus Copper Observed [1, 3]: 97.8%
TLB % Control (Phytophthora infestans; [4]): 83.0%
melting point: 306 to 308 °C

C/C(=N\NC(=O)c1ccc(C(F)(F)F)cc1)c1cc(F)cc(F)c1O [Example 581]
inhibition of growth at 0.05 µg/mL [1, 2]: 13.6%
LEPTNO % Inhn. Plus Copper Observed [1, 3]: 98.2%
TLB % Control (Phytophthora infestans; [4]): 93.0%
melting point: 287 to 291 °C

C/C(=N\NC(=O)c1ccccc1Br)c1cc(F)cc(F)c1O [Example 582]
inhibition of growth at 0.05 µg/mL [1, 2]: 12.2%
LEPTNO % Inhn. Plus Copper Observed [1, 3]: 97.8%
TLB % Control (Phytophthora infestans; [4]): 94.0%
melting point: 190 to 195 °C

Cc1ccc(C(=O)N/N=C/c2cc(Cl)cc(Cl)c2O)c(O)c1 [Example 308]
inhibition of growth at 0.05 µg/mL [1, 2]: 37.2%
LEPTNO % Inhn. Plus Copper Observed [1, 3]: 97.7%
TLB % Control (Phytophthora infestans; [4]): 96.0%
melting point: 262 to 269 °C

C/C(=N\NC(=O)c1ccccc1Br)c1cc(Cl)cc(Cl)c1O [Example 57]
inhibition of growth at 0.05 µg/mL ([1]; compound 0.05 μg/mL): 0%
LEPTNO % Inhn. Plus Copper Observed [1, 5]: 97.3%
TLB % Control (Phytophthora infestans; [6]): 89.5%
melting point: 220 to 222 °C

Cc1ccc(C(=O)N/N=C/c2ccc(Cl)c(Cl)c2O)cc1 [Example 355]
inhibition of growth at 0.05 µg/mL [1, 2]: 19.6%
LEPTNO % Inhn. Plus Copper Observed [1, 3]: 89.8%
TLB % Control (Phytophthora infestans; [4]): 87.0%
melting point: 254 to 256 °C

COc1ccc(O)c(C(=O)N/N=C(\C)c2cc(Cl)cc(Cl)c2O)c1 [Example 478]
inhibition of growth at 0.05 µg/mL [1, 2]: 0.7%
LEPTNO % Inhn. Plus Copper Observed [1, 3]: 94.7%
TLB % Control (Phytophthora infestans; [4]): 65.0%
melting point: 327 to 331 °C
